{"source": "patent US20260183393A1", "about": "“IMMUNOSUPPRESSANT-RESISTANT MODIFIED ALLOGENEIC MODIFIED IMMUNE CELLS AND METHODS FOR USE THEREOF” (Beam Therapeutics Inc., priority 2023, published 2026)", "system": "T cell-driven rejection of allogeneic HLA-I^+ CAR-T cells", "experiment": "HIS mouse-driven allorejection model, 4CAR-T cell persistence", "type": "in vivo, human immune system (HIS) mice", "settings": "for rejection of peripheral allogeneic HLA^+ CAR-T cells: RPM 1 mg kg-1 or TAC 10 mg kg-1 daily intraperitoneal for 2 weeks, 1- and 2-weeks post-treatment initiation", "procedure": "Female (aged 6-8 weeks) NOD.Cg-Prkdc^scidIL2rg^tm1Wjl/SzJ (NSG) mice (Jackson Laboratory) were maintained in a pathogen-free facility. Briefly, to generate BLT humanized mice, NSG mice were anesthetized and whole-body irradiated (2 Gy), and then implanted with 1 mm^3 fragments of human fetal liver and thymus tissue beneath the murine kidney capsule. Following, 1×10^5 autologous fetal liver-derived CD34^+ hematopoietic stem cells (HSCs) were intravenously injected within 6 hours of transplantation. Beam Therapeutics commercially obtained female NOD-Prkdc^em26Ca52 IL2rg^em26CD22/NjuCrl (NCG) CD34^+ humanized (huNCG) mice from Charles River and female (aged 6-8 weeks) NSG-Tg(IL15)1Sz/SzJ (NSG-IL15tg) mice from Jackson Laboratory. Mice were maintained in a pathogen-free facility at CRADL. Briefly, huCD34-NCG mice were generated from female (aged 4-6 weeks) NCG mice that were myeloablated and then intravenously infused with human umbilical cord blood-derived CD34^+ stem cells from a qualified source. Humanized NK (huNK) mice were generated by supplementing the water of NSG-IL-15tg with Baytril (Bayer) for 1 week followed by whole-body irradiation (2 Gy). 5×10^6 primary human CD56^+ NK cells were then intravenously injected 24 hours later and permitted to engraft. At both facilities, mice were housed in microisolator cages and fed autoclaved food and water. Animal rooms were maintained at 72±2° F., 30-70% relative humidity and were on a 12:12 h light/dark cycle. Human reconstitution was assessed from 12-17 weeks post-transplant in BLT and huNCG mice, and 2-3 weeks post-transplant in huNK mice. […]\nFor the studies described in FIGS. 16A to 16J, BLT mice were used Cohort #2 (n=12) and Cohort #5 (n=13), and huNCG mice were used in Cohort #1 (n=10), Cohort #3 (n=12) and Cohort #4 (n=10). […] Persistence of 4CAR-T cells was monitored at 1-day post-T cell infusion and weekly thereafter via blood draws from the retro-orbital sinus or submandibular vein. […]", "data": [{"smiles": "CO[C@H]1C[C@@H]2CC[C@@H](C)[C@@](O)(O2)C(=O)C(=O)N2CCCC[C@H]2C(=O)O[C@H]([C@H](C)C[C@@H]2CC[C@@H](O)[C@H](OC)C2)CC(=O)[C@H](C)/C=C(\\C)[C@@H](O)[C@@H](OC)C(=O)[C@H](C)C[C@H](C)/C=C/C=C/C=C/1C", "note": "[rapamycin, Rapamycin]", "values": [{"measurement": "rejection of peripheral allogeneic HLA^+ CAR-T cells", "value": "significantly mitigated rejection"}]}, {"smiles": "C=CC[C@@H]1/C=C(\\C)C[C@H](C)C[C@H](OC)[C@H]2O[C@@](O)(C(=O)C(=O)N3CCCC[C@H]3C(=O)O[C@H](/C(C)=C/[C@@H]3CC[C@@H](O)[C@H](OC)C3)[C@H](C)[C@@H](O)CC1=O)[C@H](C)C[C@@H]2OC", "note": "[tacrolimus, Tacrolimus]", "values": [{"measurement": "rejection of peripheral allogeneic HLA^+ CAR-T cells", "value": "significantly mitigated rejection"}, {"measurement": "cumulative allogeneic HLA^+ CAR-T cell persistence", "setting": "during the treatment window and post-treatment withdrawal, AUC", "value": "improved cumulative allogeneic HLA^+ CAR-T cell persistence"}]}]}
